Experimental data: patent publication US20240270762A1, “PENICILLIN-BINDING PROTEIN INHIBITORS” (priority 2021, published 2024)
pEC50, pIC50: −log10 of the molar value. ≈ marks a conversion by molar mass, not a printed value.

How the values were obtained:
[1] = system: B. thailandensis ATCC 700388; experiment: microbe, parasite or virus in culture; format: cell-based; conditions: Burkholderia thailandensis, ATCC700388, read-out: Minimum inhibitory concentration (MIC), B. thailandensis ATCC 700388
[2] = system: P. aeruginosa CDC-0054; experiment: microbe, parasite or virus in culture; format: cell-based; conditions: Pseudomonas aeruginosa, CDC0054, read-out: Minimum inhibitory concentration, P. aeruginosa CDC-0054
[3] = system: P. aeruginosa (ΔmexAB-oprM); experiment: Broth microdilution MIC in iron-depleted CAMHB (IDM); format: cell-based; conditions: Pseudomonas aeruginosa; iron-depleted CAMHB (IDM); […]; read-out: Minimum inhibitory concentration, P. aeruginosa ΔmexAB-oprM
[4] = system: P. aeruginosa ATCC 27853; experiment: microbe, parasite or virus in culture; format: cell-based; conditions: Pseudomonas aeruginosa, ATCC27853, read-out: Minimum inhibitory concentration, P. aeruginosa ATCC 27853
[5] = system: A. baumannii CDC-0045; experiment: microbe, parasite or virus in culture; format: cell-based; conditions: Acinetobacter baumannii, CDC0045, read-out: MIC, A. baumannii CDC-0045
[6] = target: T1, PBP3 from Pseudomonas aeruginosa (PAO1) (Pseudomonas aeruginosa, UniProt G3XD46); experiment: Bocillin-FL fluorescence polarization competition binding, P. aeruginosa PBP3; conditions: for pIC50: Binding affinity to P. aeruginosa PBP3, fluorescence polarization competition binding assay using Bocillin-FL, read-out: P. aeruginosa PBP3 Potency
T1 construct: made in house
T1 sequence (G3XD46 whole entry): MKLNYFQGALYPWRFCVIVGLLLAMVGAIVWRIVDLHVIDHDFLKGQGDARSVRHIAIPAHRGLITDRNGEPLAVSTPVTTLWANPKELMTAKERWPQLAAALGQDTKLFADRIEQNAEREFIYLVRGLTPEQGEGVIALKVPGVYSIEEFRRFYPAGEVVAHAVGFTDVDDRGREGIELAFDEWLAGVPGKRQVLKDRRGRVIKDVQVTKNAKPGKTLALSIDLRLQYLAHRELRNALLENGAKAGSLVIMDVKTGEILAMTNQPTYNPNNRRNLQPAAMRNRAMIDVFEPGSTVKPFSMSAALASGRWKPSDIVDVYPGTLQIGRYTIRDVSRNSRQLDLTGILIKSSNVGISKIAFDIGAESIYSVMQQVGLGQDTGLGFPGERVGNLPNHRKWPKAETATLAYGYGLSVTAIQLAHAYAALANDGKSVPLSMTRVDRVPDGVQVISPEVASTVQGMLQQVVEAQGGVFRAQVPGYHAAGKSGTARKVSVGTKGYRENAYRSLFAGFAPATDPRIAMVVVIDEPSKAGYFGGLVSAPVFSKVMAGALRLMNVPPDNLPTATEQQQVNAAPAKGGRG
From the text: (§1) To determine the ability of boronic acid-based test PBP inhibitors to bind Penicillin Binding Proteins (PBPs), Bocillin-FL (fluorescently-labeled penicillin V; ThermoFisher Scientific) was used in a fluorescence polarization (FP) competition binding assay to assess inhibitor binding to PBP3 from Escherichia coli (K-12), PBP3 from Pseudomonas aeruginosa (PAO1), PBP1a and PBP3 from Acinetobacter baumannii (ATCC 19606), and PBP2 from Neisseria gonorrhoeae (FA19). PBPs were cloned and purified as described previously (E. coli PBP3, King, D. T, et al., ACS Infectious Diseases 2015, 1, 175-184; P. aeruginosa PBP3, Han et. al., PNAS 2010, 107 (51), 22002-22007; A. baumannii PBPs, Penwell et. al., Antimicrob. Agents Chemother. 2015, 59 (3), 1680-1689; N. gonorrhoeae PBP2, Singh et. al., J. Biol. Chem. 2019, 294 (38), 14020-14032). To establish assay conditions for competition binding, enzyme titration/saturation binding experiments were initially performed. Bocillin-FL was prepared at 0.2 μM in a buffer comprised of 50 mM Hepes (pH 8.0), 300 mM NaCl and 10% (v/v) glycerol for reactions with E. coli, P. aeruginosa and N. gonorrhoeae PBPs, and 25 mM Tris (pH 8.0), 200 mM NaCl, 10% (v/v) glycerol and 0.005% (v/v) Tween 20 for reactions with A. baumannii PBPs. Saturation binding was performed by mixing 40 μl of PBP solutions ranging in concentrations from 0-24 μM with 40 μl of the 0.2 μM Bocillin-FL solution, in individual wells of a black 384-well microplate. FP was measured immediately upon mixing (Excitation, 490 nm; Emission, 520 nm; g-factor, 0.96), using a Cytation3 (BioTek) microplate reader and measured continuously for up to 120 minutes. The FP response stabilized after 15 minutes for P. aeruginosa and A. baumannii PBP3, 30 minutes for E. coli PBP3 and A. baumannii PBP1a, and less than 1 minute for N. gonorrhoeae PBP2. […] The competition binding assay (80 μl final volume) was validated using beta-lactams and PBPs at final concentrations of: 1.5 μM for E. coli PBP3; 0.75 μM for P. aeruginosa PBP3; 1 μM for A. baumannii PBP1a; 0.2 μM for A. baumannii PBP3; and 0.25 μM for N. gonorrhoeae PBP2. Bocillin-FL was at 0.1 μM (0.05 μM with A. baumannii PBP1a) and beta-lactam concentrations ranged from 0-1,000 μM. E. coli PBP3 was incubated with increasing concentrations of ampicillin in a black 384-well microplate (Corning) for 30 minutes. P. aeruginosa PBP3 was incubated for 15 minutes with aztreonam, whereas A. baumannii PBP1a and PBP3 were incubated for 15 minutes with meropenem, and then Bocillin-FL was added followed immediately by the FP measurement for up to 60 minutes. […] The beta-lactam potency was reported as the concentration of beta-lactam required to reduce the amount of PBP bound-Bocillin-FL by 50% (EC50). […] The EC50 of aztreonam was determined to be <0.5 μM for P. aeruginosa PBP3. […] Binding assays for boronic acid PBP inhibitors were performed in an identical fashion for the respective PBPs.

[7] = system: A. baumannii CDC-0033; experiment: microbe, parasite or virus in culture; format: cell-based; conditions: Acinetobacter baumannii, CDC0033, read-out: MIC, A. baumannii CDC-0033
[8] = system: P. aeruginosa CDC-0110; experiment: microbe, parasite or virus in culture; format: cell-based; conditions: Pseudomonas aeruginosa, CDC0110, read-out: Minimum inhibitory concentration, P. aeruginosa CDC-0110
[9] = system: A. baumannii 1258916; experiment: microbe, parasite or virus in culture; format: cell-based, Acinetobacter baumannii; conditions: Acinetobacter baumannii, 1258916, read-out: MIC, A. baumannii 1258916
[10] = target: T2, PBP3 from Acinetobacter baumannii (ATCC 19606) (Acinetobacter baumannii, UniProt A0ABX6CK25); experiment: Bocillin-FL fluorescence polarization competition binding, A. baumannii PBP3; conditions: fluorescence polarization competition binding assay using Bocillin-FL; read-out: A. baumannii PBP3 Potency
T2 sequence (A0ABX6CK25 64-610): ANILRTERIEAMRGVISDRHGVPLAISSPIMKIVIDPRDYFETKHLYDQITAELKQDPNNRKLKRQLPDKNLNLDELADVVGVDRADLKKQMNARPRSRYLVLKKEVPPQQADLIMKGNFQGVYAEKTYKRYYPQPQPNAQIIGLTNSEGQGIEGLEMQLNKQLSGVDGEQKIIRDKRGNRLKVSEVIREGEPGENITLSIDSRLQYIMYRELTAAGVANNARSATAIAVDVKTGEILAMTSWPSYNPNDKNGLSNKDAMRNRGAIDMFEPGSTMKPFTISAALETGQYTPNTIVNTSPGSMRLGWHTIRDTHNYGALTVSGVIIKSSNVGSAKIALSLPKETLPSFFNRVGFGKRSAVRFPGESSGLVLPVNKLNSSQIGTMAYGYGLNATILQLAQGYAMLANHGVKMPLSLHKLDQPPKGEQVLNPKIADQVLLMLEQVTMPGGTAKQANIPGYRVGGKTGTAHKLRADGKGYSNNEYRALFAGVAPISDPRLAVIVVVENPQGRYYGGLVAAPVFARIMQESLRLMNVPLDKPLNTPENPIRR
From the text: as §1

[11] = system: B. humptydooensis ATCC BAA-2767; experiment: microbe, parasite or virus in culture; format: cell-based; conditions: Burkholderia humptydooensis, ATCCBAA2767, read-out: Minimum inhibitory concentration (MIC), B. humptydooensis ATCC BAA-2767
[12] = system: A. baumannii CDC-0036; experiment: microbe, parasite or virus in culture; format: cell-based; conditions: Acinetobacter baumannii, CDC0036, read-out: MIC, A. baumannii CDC-0036
[13] = system: P. aeruginosa CDC-0095; experiment: microbe, parasite or virus in culture; format: cell-based; conditions: Pseudomonas aeruginosa, CDC0095, read-out: Minimum inhibitory concentration, P. aeruginosa CDC-0095
[14] = system: A. baumannii ATCC 17978; experiment: microbe, parasite or virus in culture; format: cell-based; conditions: Acinetobacter baumannii, ATCC17978, read-out: MIC, A. baumannii ATCC 17978
[15] = system: P. aeruginosa CDC-0090; experiment: microbe, parasite or virus in culture; format: cell-based; conditions: Pseudomonas aeruginosa, CDC0090, read-out: Minimum inhibitory concentration, P. aeruginosa CDC-0090
[16] = system: A. baumannii ATCC 19606; experiment: microbe, parasite or virus in culture; format: cell-based; conditions: Acinetobacter baumannii, ATCC19606, read-out: MIC, A. baumannii ATCC 19606
[17] = system: P. aeruginosa ATCC 35151; experiment: microbe, parasite or virus in culture; format: cell-based; conditions: Pseudomonas aeruginosa, ATCC35151, read-out: Minimum inhibitory concentration, P. aeruginosa ATCC 35151

Row | Structure (SMILES) | MIC [1] [µg/mL] | MIC [2] [µg/mL] | MIC [3] [µg/mL] | MIC [4] [µg/mL] | MIC [5] [µg/mL] | pIC50 [6] | MIC [7] [µg/mL] | MIC [8] [µg/mL] | MIC [9] [µg/mL] | pIC50 [10] | MIC [11] [µg/mL] | MIC [12] [µg/mL] | MIC [13] [µg/mL] | MIC [14] [µg/mL] | MIC [15] [µg/mL] | MIC [16] [µg/mL] | MIC [17] [µg/mL] | pEC50 ([6]; beta-lactam validation of FP competition assay, 15 minutes preincubation)
1 | O=C(O)c1c(F)ccc2c1OB(O)[C@@H](NC(=O)[C@@H](NC(=O)N1CCN(Cc3ccc(O)c(O)c3Cl)C(=O)C1=O)c1cccc(P(=O)(O)O)c1)C2 (single isomer, unassigned) [Example 162] | 8 to 16 (≈ 10.9 to 21.8 µM) | 2 to 4 (≈ 2.72 to 5.44 µM) | 2 to 4 (≈ 2.72 to 5.44 µM) | 2 to 4 (≈ 2.72 to 5.44 µM) | > 128 | 4.30 to 5.00 | > 128 | 2 to 4 (≈ 2.72 to 5.44 µM) | 32 to 64 (≈ 43.6 to 87.1 µM) | > 5.00 | < 1 | > 128 | 8 to 16 (≈ 10.9 to 21.8 µM) | < 1 | 2 to 4 (≈ 2.72 to 5.44 µM) | < 1 | < 1 | 
2 | O=C(O)c1c(F)ccc2c1OB(O)[C@@H](NC(=O)[C@@H](NC(=O)N1CCN(Cc3ccc(O)c(O)c3Cl)C(=O)C1=O)c1ccc(P(=O)(O)O)c(F)c1F)C2 [Example 165, (R)-3-((S)-2-(4-(2-chloro-3,4-dihydroxybenzyl)-2,3-dioxopiperazine-1-carboxamido)-2-(2,3-difluoro-4-phosphonophenyl)acetamido)-7-fluoro-2-hydroxy-3,4-dihydro-2H-benzo[e][1,2]oxaborinine-8-carboxylic acid] | < 1 | < 1 | 2 to 4 (≈ 2.59 to 5.19 µM) | 2 to 4 (≈ 2.59 to 5.19 µM) | < 1 | 4.30 to 5.00 | 32 to 64 (≈ 41.5 to 83 µM) | < 1 | 2 to 4 (≈ 2.59 to 5.19 µM) | > 5.00 | < 1 | > 128 | < 1 | < 1 | 2 to 4 (≈ 2.59 to 5.19 µM) | < 1 | < 1 | 
3 | O=C(O)c1c(F)ccc2c1OB(O)[C@@H](NC(=O)C(NC(=O)N1CCN(C3CCN(C(=O)c4cncc(O)c4)CC3)C1=O)c1cc(F)c(O)c(O)c1Cl)C2 (stereo partly drawn) [Example 464, (3R)-3-(2-(2-chloro-5-fluoro-3,4-dihydroxyphenyl)-2-(3-(1-(5-hydroxynicotinoyl)piperidin-4-yl)-2-oxoimidazolidine-1-carboxamido)acetamido)-7-fluoro-2-hydroxy-3,4-dihydro-2H-benzo[e][1,2]oxaborinine-8-carboxylic acid] |  |  |  |  |  | > 5.00 |  |  |  | > 5.00 |  |  |  |  |  |  |  | 
4 | O=C(O)c1c(F)ccc2c1OB(O)[C@@H](NC(=O)C(NC(=O)N1CCN(C3CCN(C(=O)c4cc[nH]c(=O)c4)CC3)C1=O)c1cc(F)c(O)c(O)c1Cl)C2 (stereo partly drawn) [Example 465, (3R)-3-(2-(2-chloro-5-fluoro-3,4-dihydroxyphenyl)-2-(2-oxo-3-(1-(2-oxo-1,2-dihydropyridine-4-carbonyl)piperidin-4-yl)imidazolidine-1-carboxamido)acetamido)-7-fluoro-2-hydroxy-3,4-dihydro-2H-benzo[e][1,2]oxaborinine-8-carboxylic acid] |  |  |  |  |  | > 5.00 |  |  |  | > 5.00 |  |  |  |  |  |  |  | 
5 | O=C(O)c1c(F)ccc2c1OB(O)[C@@H](NC(=O)C(NC(=O)N1CCN(C3CCN(C(=O)c4ccc5[nH]nnc5c4)CC3)C1=O)c1cc(F)c(O)c(O)c1Cl)C2 (stereo partly drawn) [Example 469, (3R)-3-(2-(3-(1-(1H-benzo[d][1,2,3]triazole-5-carbonyl)piperidin-4-yl)-2-oxoimidazolidine-1-carboxamido)-2-(2-chloro-5-fluoro-3,4-dihydroxyphenyl)acetamido)-7-fluoro-2-hydroxy-3,4-dihydro-2H-benzo[e][1,2]oxaborinine-8-carboxylic acid] |  |  |  |  |  |  |  |  |  | > 5.00 |  |  |  |  |  |  |  | 
6 | C[C@H]1[C@H](NC(=O)/C(=N\OC(C)(C)C(=O)O)c2csc(N)n2)C(=O)N1S(=O)(=O)O [aztreonam, reference compound] |  |  |  |  |  |  |  |  |  |  |  |  |  |  |  |  |  | > 6.30
